We go through 1 substance from patent publication US9937129B2, “Materials and methods for delivering compositions to selected tissues” (The Regents of the University of California, priority 2007, dated 2018).

For data set [1] the following is noted: cited from earlier work.
The nature of data set [2]: Spontaneous adsorption and concentration of bevacizumab in porous SiO2. Conditions: 0.125 mg/mL solution. The data set is classed as physicochemical. The text has this: The affinity of a porous Si particle for a particular molecule can be controlled with surface chemistry. The surface of oxidized porous Si has a point of zero charge at a pH of around 2, and so it presents a negatively charged surface to most aqueous solutions of interest. At the appropriate pH, porous SiO2 spontaneously adsorbs positively charged proteins such as serum albumin, fibrinogen, protein A, immunoglobulin G (IgG), or horseradish peroxidase, concentrating them in the process. For example, a 0.125 mg/mL solution of the monoclonal antibody bevacizumab (trade name Avastin, an anti-cancer drug) spontaneously concentrates in suitably prepared porous SiO2 by a factor of >100.

For data set [3] the following is noted: in vivo; cited from earlier work.

What is called IC50 is the concentration at which inhibition is half-maximal.

Consider bevacizumab [Avastin], for which, in data set [1], the half-inhibitory concentration (IC50) was 0.022 µg/mL. For the same substance, the Therapeutically relevant dose in data set [1] (intraocular) is listed as over 22 ng/mL. Moreover, the “Concentration factor in suitably prepared porous SiO2” value in data set [2] is recorded as over 100 factor. Further, the “Vitreous half-life of free drug” value in data set [3] is 120 h.
